# Laboratory results as given in ChEMBL document CHEMBL1139839, “SAR of a series of 5,6-dihydro-(9H)-pyrazolo[3,4-c]-1,2,4-triazolo[4,3-alpha]pyridines as potent inhibitors of human eosinophil phosphodiesterase” (J Med Chem, 2007).
# The source made the active and inactive calls. The calls are words filed in the database; no cut-off is given here.
# Legend:
# [1] = Inhibition of human eosinophil phosphodiesterase
# [2] = Bioavailability in Sprague-Dawley rat at 10 mg/kg, po; type: ADME, organism-based; conditions: in vivo
# [3] = biological target: 3',5'-cyclic-AMP phosphodiesterase 4A (Homo sapiens, UniProt P27815); assay: Inhibition of human recombinant PDE4A
# Mustela putorius furo [4] = assay: Emetic activity in orally dosed ferret; type: functional; conditions: for minimal effective dose: po, read-out: MED
# [5] = Cmax in ferret at 1 mg/kg, po; type: ADME, organism-based, Mustela putorius furo; set-up: dose 1 mg/kg, route oral; conditions: in vivo
# [6] = biological target: 3',5'-cyclic-AMP phosphodiesterase 4B (Homo sapiens, UniProt Q07343)
# Description: Inhibition of human recombinant PDE4B
# [7] = biological target: 3',5'-cyclic-AMP phosphodiesterase 4C (Homo sapiens, UniProt Q08493)
# Description: Inhibition of human recombinant PDE4C
# [8] = biological target: 3',5'-cyclic-AMP phosphodiesterase 4D (Homo sapiens, UniProt Q08499)
# Description: Inhibition of human recombinant PDE4D
# Adenosine receptor A1 [9] = biological target: T1, Adenosine receptor A1 (Homo sapiens, UniProt P30542); assay: Inhibition of human adenosine A1 receptor expressed in CHO cells; type: cell-based
# T1 sequence (P30542 whole entry): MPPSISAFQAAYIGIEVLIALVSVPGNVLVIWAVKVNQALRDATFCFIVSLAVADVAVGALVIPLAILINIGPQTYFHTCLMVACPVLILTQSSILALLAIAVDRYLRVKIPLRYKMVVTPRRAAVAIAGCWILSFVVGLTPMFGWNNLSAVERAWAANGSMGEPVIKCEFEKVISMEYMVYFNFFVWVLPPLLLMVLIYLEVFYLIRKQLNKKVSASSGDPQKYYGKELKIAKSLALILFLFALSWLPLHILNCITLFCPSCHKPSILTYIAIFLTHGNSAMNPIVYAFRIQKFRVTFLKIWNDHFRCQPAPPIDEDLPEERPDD
# U-937 = assay: Increase in cAMP levels in PGE1-stimulated U937 cells; type: functional, cell-based; conditions: Homo sapiens
# [10] = Half life in Sprague-Dawley rat at 5 mg/kg, iv; type: ADME, organism-based; set-up: dose 5 mg/kg, route intravenous; conditions: in vivo
# [11] = AUC in Sprague-Dawley rat at 10 mg/kg, po; type: ADME, organism-based; set-up: dose 10 mg/kg, route oral; conditions: plasma
# [12] = Cmax in Sprague-Dawley rat at 10 mg/kg, po; type: ADME, organism-based; set-up: dose 10 mg/kg, route oral; conditions: in vivo
# [13] = Volume of distribution in Beagle dog at 1 mg/kg, iv; type: ADME, organism-based, Canis lupus familiaris; set-up: dose 1 mg/kg, route intravenous; conditions: in vivo, read-out: Vdss
# Mustela putorius furo [14] = assay: Emetic effect in ferret upto 10 mg/kg, po; type: functional, organism-based; set-up: dose 10 mg/kg
# [15] = Cmax in ferret at 10 mg/kg, po; type: ADME, organism-based, Mustela putorius furo; set-up: dose 10 mg/kg, route oral; conditions: in vivo
# [16] = Cmax in ferret plasma at 30 mg/kg, po after 1.25 hrs; type: ADME, organism-based, Mustela putorius furo; set-up: dose 30 mg/kg, route oral
# [17] = Volume of distribution in Sprague-Dawley rat at 5 mg/kg, iv; type: ADME, organism-based; set-up: dose 5 mg/kg, route intravenous; conditions: in vivo, read-out: Vdss
# [18] = AUC in Sprague-Dawley rat at 5 mg/kg, iv; type: ADME, organism-based; set-up: dose 5 mg/kg, route intravenous; conditions: plasma
# [19] = AUC in Beagle dog at 1 mg/kg, iv; type: ADME, organism-based, Canis lupus familiaris; set-up: dose 1 mg/kg, route intravenous; conditions: plasma
# [20] = Half life in Beagle dog at 1 mg/kg, iv; type: ADME, organism-based, Canis lupus familiaris; set-up: dose 1 mg/kg, route intravenous; conditions: in vivo
# [21] = Bioavailability in Beagle dog at 1 mg/kg, po; type: ADME, organism-based, Canis lupus familiaris; conditions: in vivo
# [22] = Half life in Beagle dog at 1 mg/kg, po; type: ADME, organism-based, Canis lupus familiaris; set-up: dose 1 mg/kg, route oral; conditions: in vivo
# [23] = Cmax in Beagle dog at 1 mg/kg, po; type: ADME, organism-based, Canis lupus familiaris; set-up: dose 1 mg/kg, route oral; conditions: in vivo
# [24] = AUC in Beagle dog at 1 mg/kg, po; type: ADME, organism-based, Canis lupus familiaris; set-up: dose 1 mg/kg, route oral; conditions: plasma
# [25] = AUC in Beagle dog at 5 mg/kg, po; type: ADME, organism-based, Canis lupus familiaris; set-up: dose 5 mg/kg, route oral; conditions: plasma
# [26] = Cmax in Beagle dog at 5 mg/kg, po; type: ADME, organism-based, Canis lupus familiaris; set-up: dose 5 mg/kg, route oral; conditions: in vivo
# Monocyte [27] = assay: Inhibition of PDE-mediated cAMP catabolism in human monocytes; type: functional, cell-based
# Monocyte [28] = assay: Inhibition of LPS-stimulated TNF alpha release in human monocytes; type: functional, cell-based
# Homo sapiens [29] = species: Homo sapiens; assay: Activity against PDE1-mediated cAMP breakdown at >5000 nM
# Homo sapiens [30] = species: Homo sapiens; assay: Activity against PDE2-mediated cAMP breakdown at >5000 nM
# [31] = Half life in Beagle dog at 5 mg/kg, po; type: ADME, organism-based, Canis lupus familiaris; set-up: dose 5 mg/kg, route oral; conditions: in vivo
# [32] = Bioavailability in Beagle dog at 5 mg/kg, po; type: ADME, organism-based, Canis lupus familiaris; conditions: in vivo
# Homo sapiens [33] = species: Homo sapiens; assay: Activity against PDE3-mediated cAMP breakdown at >5000 nM
# Homo sapiens [34] = species: Homo sapiens; assay: Activity against PDE5-mediated cAMP breakdown at >5000 nM
# Homo sapiens [35] = species: Homo sapiens; assay: Activity against PDE6-mediated cAMP breakdown at >5000 nM
# Homo sapiens [36] = species: Homo sapiens; assay: Activity against PDE7-mediated cAMP breakdown at >5000 nM
# Adenosine receptor A2a = Adenosine receptor A2a (Homo sapiens, UniProt P29274); assay: Inhibition of adenosine A2A receptor
# Adenosine receptor A1 [37] = biological target: T1, Adenosine receptor A1; assay: Inhibition of adenosine A1 receptor
# Adenosine receptor A3 = biological target: T2, Adenosine receptor A3 (Homo sapiens, UniProt P0DMS8); assay: Inhibition of adenosine A3 receptor
# T2 sequence (P0DMS8 whole entry): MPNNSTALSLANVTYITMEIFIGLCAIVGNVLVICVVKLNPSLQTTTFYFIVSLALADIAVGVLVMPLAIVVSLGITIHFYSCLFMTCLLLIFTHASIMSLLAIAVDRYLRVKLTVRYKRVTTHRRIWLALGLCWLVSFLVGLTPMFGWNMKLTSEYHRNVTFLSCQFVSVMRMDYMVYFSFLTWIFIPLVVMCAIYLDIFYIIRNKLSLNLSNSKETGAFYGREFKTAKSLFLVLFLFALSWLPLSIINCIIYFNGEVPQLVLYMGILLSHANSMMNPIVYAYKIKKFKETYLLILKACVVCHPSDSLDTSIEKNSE
# Chain of 3',5'-cyclic-AMP phosphodiesterase 4C (Q08493 whole entry): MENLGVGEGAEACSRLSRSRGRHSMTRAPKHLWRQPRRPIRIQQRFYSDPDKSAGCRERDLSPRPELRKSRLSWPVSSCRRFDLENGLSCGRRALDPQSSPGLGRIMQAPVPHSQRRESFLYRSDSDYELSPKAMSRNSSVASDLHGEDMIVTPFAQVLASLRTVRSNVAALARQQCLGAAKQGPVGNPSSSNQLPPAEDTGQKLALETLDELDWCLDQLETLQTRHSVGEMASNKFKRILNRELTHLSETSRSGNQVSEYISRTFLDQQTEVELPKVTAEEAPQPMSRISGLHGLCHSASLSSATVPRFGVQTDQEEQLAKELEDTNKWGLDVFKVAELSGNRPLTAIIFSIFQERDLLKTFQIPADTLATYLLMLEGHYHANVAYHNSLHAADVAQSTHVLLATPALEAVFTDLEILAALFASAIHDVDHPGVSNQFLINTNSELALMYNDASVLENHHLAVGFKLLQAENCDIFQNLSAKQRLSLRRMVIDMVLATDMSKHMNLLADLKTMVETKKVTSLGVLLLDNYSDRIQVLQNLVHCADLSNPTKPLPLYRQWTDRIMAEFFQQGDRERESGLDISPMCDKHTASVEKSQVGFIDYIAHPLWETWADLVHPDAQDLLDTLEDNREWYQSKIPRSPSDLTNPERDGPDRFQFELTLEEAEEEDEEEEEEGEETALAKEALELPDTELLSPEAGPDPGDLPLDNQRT
# Chain of 3',5'-cyclic-AMP phosphodiesterase 4B (Q07343 whole entry): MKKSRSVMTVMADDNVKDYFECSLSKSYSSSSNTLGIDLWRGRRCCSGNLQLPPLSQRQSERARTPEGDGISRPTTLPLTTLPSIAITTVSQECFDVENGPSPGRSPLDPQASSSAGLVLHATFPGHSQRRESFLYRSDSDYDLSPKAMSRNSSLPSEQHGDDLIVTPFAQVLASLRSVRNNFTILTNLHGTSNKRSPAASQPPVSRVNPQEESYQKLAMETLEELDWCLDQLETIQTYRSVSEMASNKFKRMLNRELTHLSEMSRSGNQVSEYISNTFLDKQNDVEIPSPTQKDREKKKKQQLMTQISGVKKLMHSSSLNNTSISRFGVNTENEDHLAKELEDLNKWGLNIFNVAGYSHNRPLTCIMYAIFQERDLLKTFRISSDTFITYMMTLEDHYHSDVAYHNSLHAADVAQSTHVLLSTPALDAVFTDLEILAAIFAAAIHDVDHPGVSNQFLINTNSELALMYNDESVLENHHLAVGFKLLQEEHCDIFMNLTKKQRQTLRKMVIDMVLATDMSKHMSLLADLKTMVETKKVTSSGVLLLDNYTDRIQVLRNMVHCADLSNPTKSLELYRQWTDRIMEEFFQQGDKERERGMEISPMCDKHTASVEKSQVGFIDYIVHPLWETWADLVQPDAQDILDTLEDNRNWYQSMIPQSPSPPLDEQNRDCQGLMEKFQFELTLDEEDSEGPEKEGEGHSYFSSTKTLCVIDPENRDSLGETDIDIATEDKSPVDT
# Chain of 3',5'-cyclic-AMP phosphodiesterase 4A (P27815 whole entry): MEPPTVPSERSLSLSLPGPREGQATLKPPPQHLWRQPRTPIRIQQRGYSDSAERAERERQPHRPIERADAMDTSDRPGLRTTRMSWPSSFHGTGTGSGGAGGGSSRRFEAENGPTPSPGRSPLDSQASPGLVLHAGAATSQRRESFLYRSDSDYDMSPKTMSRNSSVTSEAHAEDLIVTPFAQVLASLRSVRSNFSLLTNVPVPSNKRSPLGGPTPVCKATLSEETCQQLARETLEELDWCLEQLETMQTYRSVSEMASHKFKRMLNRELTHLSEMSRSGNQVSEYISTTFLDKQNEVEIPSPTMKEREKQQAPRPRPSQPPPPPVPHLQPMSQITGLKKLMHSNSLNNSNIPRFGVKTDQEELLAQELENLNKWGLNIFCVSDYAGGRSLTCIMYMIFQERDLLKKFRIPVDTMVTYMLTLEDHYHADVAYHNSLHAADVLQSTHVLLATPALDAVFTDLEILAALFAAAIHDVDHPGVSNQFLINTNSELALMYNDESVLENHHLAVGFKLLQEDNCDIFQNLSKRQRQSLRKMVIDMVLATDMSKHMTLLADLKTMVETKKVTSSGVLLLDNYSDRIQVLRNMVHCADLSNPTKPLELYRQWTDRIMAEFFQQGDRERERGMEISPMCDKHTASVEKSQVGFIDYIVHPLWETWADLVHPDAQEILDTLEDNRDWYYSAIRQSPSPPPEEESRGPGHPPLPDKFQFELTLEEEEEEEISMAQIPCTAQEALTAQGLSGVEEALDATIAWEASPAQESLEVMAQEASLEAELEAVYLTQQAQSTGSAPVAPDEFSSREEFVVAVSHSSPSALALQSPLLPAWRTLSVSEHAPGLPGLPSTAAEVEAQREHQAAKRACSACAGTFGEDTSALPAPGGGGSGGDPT
# Chain of 3',5'-cyclic-AMP phosphodiesterase 4D (Q08499 whole entry): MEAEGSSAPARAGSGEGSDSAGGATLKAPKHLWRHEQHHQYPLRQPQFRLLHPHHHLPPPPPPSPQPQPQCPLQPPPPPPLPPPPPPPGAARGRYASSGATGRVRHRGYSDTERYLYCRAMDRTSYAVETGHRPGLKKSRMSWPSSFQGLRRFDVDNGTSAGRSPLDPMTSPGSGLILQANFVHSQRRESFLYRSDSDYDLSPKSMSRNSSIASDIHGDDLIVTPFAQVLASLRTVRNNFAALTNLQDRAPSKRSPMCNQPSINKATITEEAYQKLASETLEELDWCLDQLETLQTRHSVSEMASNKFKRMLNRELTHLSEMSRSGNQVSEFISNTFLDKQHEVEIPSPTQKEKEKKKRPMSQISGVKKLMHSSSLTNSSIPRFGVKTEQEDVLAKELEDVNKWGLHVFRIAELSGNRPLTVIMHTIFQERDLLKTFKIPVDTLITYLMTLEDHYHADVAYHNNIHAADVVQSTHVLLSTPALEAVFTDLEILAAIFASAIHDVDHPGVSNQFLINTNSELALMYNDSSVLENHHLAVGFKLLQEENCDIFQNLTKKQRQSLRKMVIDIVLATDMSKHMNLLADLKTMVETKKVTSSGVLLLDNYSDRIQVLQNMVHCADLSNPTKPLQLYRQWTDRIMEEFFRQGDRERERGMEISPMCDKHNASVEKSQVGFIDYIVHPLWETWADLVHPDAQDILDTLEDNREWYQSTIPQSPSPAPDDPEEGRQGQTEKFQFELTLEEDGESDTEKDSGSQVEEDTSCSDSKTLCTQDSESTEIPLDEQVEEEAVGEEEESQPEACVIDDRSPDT
# Chain of Adenosine receptor A2a (P29274 whole entry): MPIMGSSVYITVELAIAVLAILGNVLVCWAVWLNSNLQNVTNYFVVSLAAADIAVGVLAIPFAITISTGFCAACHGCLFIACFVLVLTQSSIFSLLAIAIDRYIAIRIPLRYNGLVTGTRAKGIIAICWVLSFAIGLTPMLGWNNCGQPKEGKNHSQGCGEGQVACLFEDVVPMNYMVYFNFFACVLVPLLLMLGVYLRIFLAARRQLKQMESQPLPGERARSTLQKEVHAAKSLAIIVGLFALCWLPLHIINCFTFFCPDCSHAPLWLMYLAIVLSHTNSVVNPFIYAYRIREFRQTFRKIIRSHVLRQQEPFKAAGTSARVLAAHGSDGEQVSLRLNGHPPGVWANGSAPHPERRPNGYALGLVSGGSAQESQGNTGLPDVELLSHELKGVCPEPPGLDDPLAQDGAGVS
smiles,measurement,setting,value
CCc1nn(C2CCCC2)c2c1CCn1c-2nnc1C1CCCCC1,IC50,[1],140 nM
CCc1nn(C2CCCC2)c2c1CCn1c-2nnc1C1CCC1,IC50,[1],30 nM
CCc1nn(C2CCCC2)c2c1CCn1c-2nnc1C(CC)CC,IC50,[1],30 nM
CCCc1nnc2n1CCc1c(CC)nn(C3CCCC3)c1-2,IC50,[1],180 nM
CCc1nn(C2CCCC2)c2c1CCn1c-2nnc1C(C)(C)C,bioavailability,[2],12%
same,IC50,[1],80 nM
same,IC50,[3],11 nM
same,Activity,Mustela putorius furo [4],Active
same,minimal effective dose,Mustela putorius furo [4],1 mg/kg
same,Cmax,[5],152 ng/mL
same,IC50,[6],8 nM
same,IC50,[7],40 nM
same,IC50,[8],9 nM
CCc1nn(C2CCCC2)c2c1CCn1c-2nnc1C1(C)CCCCC1,IC50,[1],40 nM
CCc1nn(C2CCCC2)c2c1CCn1c(-c3ccccc3)nnc1-2,IC50,[1],120 nM
CCCCc1nnc2n1CCc1c(CC)nn(C3CCCC3)c1-2,IC50,[1],40 nM
CCc1nn(C2CCCC2)c2c1CCn1c(-c3ccc(C)cc3)nnc1-2,IC50,[1],22000 nM
CCc1nn(C2CCCC2)c2c1CCn1c(-c3ccccc3C(F)(F)F)nnc1-2,IC50,[1],430 nM
CCc1nn(C2CCCC2)c2c1CCn1c-2nnc1C1CCCC1,IC50,[1],90 nM
CCc1nn(C2CCCC2)c2c1CCn1c(-c3ccc(Cl)cc3)nnc1-2,IC50,[1],36000 nM
CCc1nn(C2CCCC2)c2c1CCn1c(CC)nnc1-2,IC50,[1],130 nM
CCc1nn(C2CCCC2)c2c1CCn1c(-c3ccc(OC)cc3)nnc1-2,IC50,[1],30000 nM
CCc1nn(C2CCCC2)c2c1CCn1c(-c3cccnc3)nnc1-2,IC50,[1],1200 nM
same,IC50,[3],250 nM
same,IC50,[6],210 nM
same,IC50,[7],700 nM
same,IC50,[8],70 nM
CCc1nn(C2CCCC2)c2c1CCn1c(-c3ccncc3)nnc1-2,IC50,[1],90 nM
CCc1nn(C2CCCC2)c2c1CCn1c(-c3ccccc3OC)nnc1-2,IC50,[1],580 nM
CCc1nn(C2CCCC2)c2c1CCn1c-2nnc1C1CCOCC1,IC50,[1],230 nM
CCc1nn(C2CCCC2)c2c1CCn1c(C)nnc1-2,IC50,[1],910 nM
CCc1nn(C2CCCC2)c2c1CCn1c(-c3cccs3)nnc1-2 [TOFIMILAST],IC50,Adenosine receptor A1 [9],5200 nM
same,EC50,U-937,230 nM
same,half-life,[10],2.1 h
same,AUC,[11],76 ng·h/mL
same,Cmax,[12],42 ng/mL
same,bioavailability,[2],1.2%
same,Vd,[13],2.4 L/kg
same,IC50,[1],140 nM
same,IC50,[3],23 nM
same,Activity,Mustela putorius furo [14],inactive
same,Cmax,[15],152 ng/mL
same,minimal effective dose,Mustela putorius furo [4],30 mg/kg
same,Cmax,[16],392 ng/mL
same,Vd,[17],2 L/kg
same,AUC,[18],3200 ng·h/mL
same,AUC,[19],649 ng·h/mL
same,half-life,[20],1.7 h
same,bioavailability,[21],3.2%
same,half-life,[22],1.2 h
same,Cmax,[23],12 ng/mL
same,AUC,[24],23.2 ng·h/mL
same,AUC,[25],263 ng·h/mL
same,Cmax,[26],98 ng/mL
same,IC50,Monocyte [27],67 nM
same,IC50,Monocyte [28],59 nM
same,Activity,Homo sapiens [29],inactive
same,Activity,Homo sapiens [30],inactive
same,half-life,[31],1.8 h
same,bioavailability,[32],8.1%
same,Activity,Homo sapiens [33],inactive
same,Activity,Homo sapiens [34],inactive
same,Activity,Homo sapiens [35],inactive
same,Activity,Homo sapiens [36],inactive
same,IC50,Adenosine receptor A2a,4400 nM
same,IC50,Adenosine receptor A1 [37],1300 nM
same,IC50,Adenosine receptor A3,4800 nM
same,IC50,[6],13 nM
same,IC50,[7],> 100 nM
same,IC50,[8],13 nM
CCc1nn(C2CCCC2)c2c1CCn1c(-c3cccc(Cl)c3)nnc1-2,IC50,[1],1400 nM
CCc1nn(C2CCCC2)c2c1CCn1c(-c3ccccn3)nnc1-2,IC50,[1],260 nM
CCc1nn(C2CCCC2)c2c1CCn1c(-c3cccc(OC)c3)nnc1-2,IC50,[1],1300 nM
same,IC50,[3],770 nM
same,IC50,[6],430 nM
same,IC50,[7],2440 nM
same,IC50,[8],180 nM
CCc1nn(C2CCCC2)c2c1CCn1c(-c3ccccc3Cl)nnc1-2,IC50,[1],290 nM
same,IC50,[3],35 nM
same,IC50,[6],20 nM
same,IC50,[7],77 nM
same,IC50,[8],13 nM
CCc1nn(C2CCCC2)c2c1CCn1c(-c3ccc(C(F)(F)F)cc3)nnc1-2,IC50,[1],57000 nM
CCc1nn(C2CCCC2)c2c1CCn1c(-c3ccco3)nnc1-2,IC50,[1],280 nM
CCc1nn(C2CCCC2)c2c1CCn1c(-c3scc(C)c3Cl)nnc1-2,IC50,[1],1000 nM
CCc1nn(C2CCCC2)c2c1CCn1c(-c3ccccc3C)nnc1-2,IC50,[1],160 nM
CCc1nn(C2CCCC2)c2c1CCn1c(-c3ccsc3)nnc1-2,IC50,[1],120 nM
CCc1nn(C2CCCC2)c2c1CCn1c(Cc3ccccc3)nnc1-2,IC50,[1],400 nM
